Laboratory results as given in ChEMBL document CHEMBL1153552, “Comparative in vitro pharmacodynamics of caspofungin, micafungin, and anidulafungin against germinated and nongerminated Aspergillus conidia” (2008).
Active and inactive are the calls of the source. The rule behind the calls is not given here. Numbered stars: 1 amine (or outer) side, 2 acyl side, 3 side chain; on linkers, the order of the positions; unused ones are H or OH. Bridge positions count the residues as written; N and C are the ends. Square brackets hold non-standard residues; d marks the D form. Peptide text beside a SMILES is read from it. * marks the point of attachment. pTerphenylCO(4''-OnC5H11) = CCCCCOc1ccc(-c2ccc(-c3ccc(C(=O)*)cc3)cc2)cc1; Orn(4R-OH,5R-OH) = O=C([C@H](C[C@@H](O)[C@@H](O)N[*:3])N[*:1])[*:2]; hTyr(3S-OH,4S-OH) = N[C@H](C(=O)O)[C@H](O)[C@@H](O)c1ccc(O)cc1; Pro(3S-OH,4S-Me) = C[C@H]1CN[C@H](C(=O)O)[C@H]1O; Hyp = O=C(O)[C@@H]1C[C@@H](O)CN1

How the values were obtained:
Aspergillus fumigatus [1] = test: Increase in metabolic activity of nongerminated Aspergillus fumigatus assessed as elongation of short, stubby aberrant hyphae at 2 ug/mL after 48 hrs by XTT assay; type: functional, organism-based
Aspergillus fumigatus [2] = test: Increase in metabolic activity of nongerminated Aspergillus fumigatus elongation of short, stubby aberrant hyphae at 16 ug/mL after 48 hrs by XTT assay; type: functional, organism-based
Aspergillus fumigatus [3] = test: Increase in metabolic activity of nongerminated Aspergillus fumigatus assessed as formation of short, stubby aberrant hyphae at 0.03 ug/mL after 48 hrs by XTT assay; type: functional, organism-based
Aspergillus flavus [4] = test: Antifungal activity against nongerminated Aspergillus flavus assessed as lowest drug concentration that produced short, stubby and highly branched hyphae after 48 hrs by microscopic analysis; type: functional; settings: read-out: MEC
Aspergillus flavus [5] = test: Effect on nongerminated Aspergillus flavus metabolic activity assessed as drug concentration at which fungal metabolic activity occurs after 2 hrs by XTT assay; type: functional
Aspergillus flavus [6] = test: Antifungal activity against germinated Aspergillus flavus assessed as lowest drug concentration that produced short, stubby and highly branched hyphae after 48 hrs by microscopic analysis; type: functional; settings: read-out: MEC
Aspergillus terreus [7] = test: Antifungal activity against germinated Aspergillus terreus assessed as absence of visual fungal growth at 128 ug/mL; type: functional, organism-based
Aspergillus fumigatus [8] = test: Antifungal activity against nongerminated Aspergillus fumigatus assessed as lowest drug concentration that produced short, stubby and highly branched hyphae after 48 hrs by microscopic analysis; type: functional; settings: read-out: MEC
Aspergillus terreus [9] = test: Ratio of log2 of MEC for germinated Aspergillus terreus to log2 of MEC for nongerminated Aspergillus terreus; type: functional
Aspergillus flavus [10] = test: Antifungal activity against germinated Aspergillus flavus assessed as absence of visual fungal growth at 64 ug/mL; type: functional, organism-based
Aspergillus fumigatus [11] = test: Induction of maximal metabolic inhibition in nongerminated Aspergillus fumigatus assessed as minimal metabolic activity Ymin after 2 hrs by XTT assay; type: functional; set-up: scale not given: the % may be the effect or the level left
Aspergillus flavus [12] = test: Induction of maximal metabolic inhibition in germinated Aspergillus flavus assessed as minimal metabolic activity Ymin after 2 hrs by XTT assay; type: functional; set-up: scale not given: the % may be the effect or the level left
Aspergillus flavus [13] = test: Increase in metabolic activity of nongerminated Aspergillus flavus assessed as elongation of short, stubby aberrant hyphae at 16 ug/mL after 48 hrs by XTT assay; type: functional, organism-based
Aspergillus terreus [14] = test: Antifungal activity against nongerminated Aspergillus terreus assessed as absence of visual fungal growth at 128 ug/mL; type: functional, organism-based
Aspergillus terreus [15] = test: Induction of maximal metabolic inhibition in nongerminated Aspergillus terreus assessed as minimal metabolic activity Ymin after 2 hrs by XTT assay; type: functional; set-up: scale not given: the % may be the effect or the level left
Aspergillus terreus [16] = test: Increase in metabolic activity of nongerminated Aspergillus terreus assessed as formation of short, stubby aberrant hyphae at 0.03 ug/mL after 48 hrs by XTT assay; type: functional, organism-based
Aspergillus fumigatus [17] = test: Antifungal activity against nongerminated Aspergillus fumigatus assessed as absence of visual fungal growth at 128 ug/mL; type: functional, organism-based
Aspergillus flavus [18] = test: Increase in metabolic activity of nongerminated Aspergillus flavus assessed as elongation of short, stubby aberrant hyphae at 2 ug/mL after 48 hrs by XTT assay; type: functional, organism-based
Aspergillus fumigatus [19] = test: Increase in metabolic activity of germinated Aspergillus fumigatus assessed as elongation of short, stubby aberrant hyphae at 2 ug/mL after 48 hrs by XTT assay; type: functional, organism-based
Aspergillus flavus [20] = test: Effect on Aspergillus flavus metabolic activity assessed number of twofold drug dilutions required for germinated fungal metabolic activity to nongerminated fungal metabolic activity; type: functional
Aspergillus fumigatus [21] = test: Effect on nongerminated Aspergillus fumigatus metabolic activity assessed as drug concentration at which fungal metabolic activity occurs after 2 hrs by XTT assay; type: functional
Aspergillus terreus [22] = test: Antifungal activity against nongerminated Aspergillus terreus assessed as absence of visual fungal growth at 64 ug/mL; type: functional, organism-based
Aspergillus fumigatus [23] = test: Induction of maximal metabolic inhibition in germinated Aspergillus fumigatus assessed as minimal metabolic activity Ymin after 2 hrs by XTT assay; type: functional; set-up: scale not given: the % may be the effect or the level left
Aspergillus terreus [24] = test: Increase in metabolic activity of germinated Aspergillus terreus assessed as elongation of short, stubby aberrant hyphae at 16 ug/mL after 48 hrs by XTT assay; type: functional, organism-based
Aspergillus flavus [25] = test: Antifungal activity against nongerminated Aspergillus flavus assessed as absence of visual fungal growth at 128 ug/mL; type: functional, organism-based
Aspergillus flavus [26] = test: Antifungal activity against nongerminated Aspergillus flavus assessed as absence of visual fungal growth at 64 ug/mL; type: functional, organism-based
Aspergillus flavus [27] = test: Antifungal activity against germinated Aspergillus flavus assessed as absence of visual fungal growth at 128 ug/mL; type: functional, organism-based
Aspergillus fumigatus [28] = test: Antifungal activity against nongerminated Aspergillus fumigatus assessed as absence of visual fungal growth at 64 ug/mL; type: functional, organism-based
Aspergillus fumigatus [29] = test: Effect on Aspergillus fumigatus metabolic activity assessed number of twofold drug dilutions required for germinated fungal metabolic activity to nongerminated fungal metabolic activity; type: functional
Aspergillus fumigatus [30] = test: Increase in metabolic activity of germinated Aspergillus fumigatus assessed as formation of short, stubby aberrant hyphae at 0.03 ug/mL after 48 hrs by XTT assay; type: functional, organism-based
Aspergillus flavus [31] = test: Increase in metabolic activity of germinated Aspergillus flavus assessed as formation of short, stubby aberrant hyphae at 0.03 ug/mL after 48 hrs by XTT assay; type: functional, organism-based
Aspergillus fumigatus [32] = test: Antifungal activity against germinated Aspergillus fumigatus assessed as absence of visual fungal growth at 64 ug/mL; type: functional, organism-based
Aspergillus flavus [33] = test: Effect on germinated Aspergillus flavus metabolic activity assessed as drug concentration at which fungal metabolic activity occurs after 2 hrs by XTT assay; type: functional
Aspergillus terreus [34] = test: Increase in metabolic activity of nongerminated Aspergillus terreus assessed as elongation of short, stubby aberrant hyphae at 2 ug/mL after 48 hrs by XTT assay; type: functional, organism-based
Aspergillus terreus [35] = test: Antifungal activity against germinated Aspergillus terreus assessed as lowest drug concentration that produced short, stubby and highly branched hyphae after 48 hrs by microscopic analysis; type: functional; settings: read-out: MEC
Aspergillus terreus [36] = test: Increase in metabolic activity of germinated Aspergillus terreus assessed as formation of short, stubby aberrant hyphae at 0.03 ug/mL after 48 hrs by XTT assay; type: functional, organism-based
Aspergillus terreus [37] = test: Effect on nongerminated Aspergillus terreus metabolic activity assessed as drug concentration at which fungal metabolic activity occurs after 2 hrs by XTT assay; type: functional
Aspergillus terreus [38] = test: Antifungal activity against nongerminated Aspergillus terreus assessed as lowest drug concentration that produced short, stubby and highly branched hyphae after 48 hrs by microscopic analysis; type: functional; settings: read-out: MEC
Aspergillus terreus [39] = test: Increase in metabolic activity of nongerminated Aspergillus terreus assessed as elongation of short, stubby aberrant hyphae at 16 ug/mL after 48 hrs by XTT assay; type: functional, organism-based
Aspergillus fumigatus [40] = test: Effect on germinated Aspergillus fumigatus metabolic activity assessed as drug concentration at which fungal metabolic activity occurs after 2 hrs by XTT assay; type: functional
Aspergillus flavus [41] = test: Increase in metabolic activity of germinated Aspergillus flavus assessed as elongation of short, stubby aberrant hyphae at 2 ug/mL after 48 hrs by XTT assay; type: functional, organism-based
Aspergillus fumigatus [42] = test: Ratio of log2 of MEC for germinated Aspergillus fumigatus to log2 of MEC for nongerminated Aspergillus fumigatus; type: functional
Aspergillus terreus [43] = test: Induction of maximal metabolic inhibition in germinated Aspergillus terreus assessed as minimal metabolic activity Ymin after 2 hrs by XTT assay; type: functional; set-up: scale not given: the % may be the effect or the level left
Aspergillus fumigatus [44] = test: Antifungal activity against germinated Aspergillus fumigatus assessed as absence of visual fungal growth at 128 ug/mL; type: functional, organism-based
Aspergillus flavus [45] = test: Ratio of log2 of MEC for germinated Aspergillus flavus to log2 of MEC for nongerminated Aspergillus flavus; type: functional
Aspergillus flavus [46] = test: Increase in metabolic activity of nongerminated Aspergillus flavus assessed as formation of short, stubby aberrant hyphae at 0.03 ug/mL after 48 hrs by XTT assay; type: functional, organism-based
Aspergillus terreus [47] = test: Increase in metabolic activity of germinated Aspergillus terreus assessed as elongation of short, stubby aberrant hyphae at 2 ug/mL after 48 hrs by XTT assay; type: functional, organism-based
Aspergillus flavus [48] = test: Induction of maximal metabolic inhibition in nongerminated Aspergillus flavus assessed as minimal metabolic activity Ymin after 2 hrs by XTT assay; type: functional; set-up: scale not given: the % may be the effect or the level left
Aspergillus terreus [49] = test: Antifungal activity against germinated Aspergillus terreus assessed as absence of visual fungal growth at 64 ug/mL; type: functional, organism-based
Aspergillus terreus [50] = test: Effect on Aspergillus terreus metabolic activity assessed number of twofold drug dilutions required for germinated fungal metabolic activity to nongerminated fungal metabolic activity; type: functional
Aspergillus fumigatus [51] = test: Increase in metabolic activity of germinated Aspergillus fumigatus assessed as elongation of short, stubby aberrant hyphae at 16 ug/mL after 48 hrs by XTT assay; type: functional, organism-based
Aspergillus fumigatus [52] = test: Antifungal activity against germinated Aspergillus fumigatus assessed as lowest drug concentration that produced short, stubby and highly branched hyphae after 48 hrs by microscopic analysis; type: functional; settings: read-out: MEC
Aspergillus terreus [53] = test: Effect on germinated Aspergillus terreus metabolic activity assessed as drug concentration at which fungal metabolic activity occurs after 2 hrs by XTT assay; type: functional
Aspergillus flavus [54] = test: Increase in metabolic activity of germinated Aspergillus flavus assessed as elongation of short, stubby aberrant hyphae at 16 ug/mL after 48 hrs by XTT assay; type: functional, organism-based

CCCCCOc1ccc(-c2ccc(-c3ccc(C(=O)N[C@H]4C[C@@H](O)[C@@H](O)NC(=O)[C@@H]5[C@@H](O)[C@@H](C)CN5C(=O)[C@H]([C@@H](C)O)NC(=O)[C@H]([C@H](O)[C@@H](O)c5ccc(O)cc5)NC(=O)[C@@H]5C[C@@H](O)CN5C(=O)[C@H]([C@@H](C)O)NC4=O)cc3)cc2)cc1 [ANIDULAFUNGIN] ({pTerphenylCO(4''-OnC5H11)}-[Orn(4R-OH,5R-OH)]T[Hyp][hTyr(3S-OH,4S-OH)]T[Pro(3S-OH,4S-Me)]; lactam 1-C)
Activity (Aspergillus fumigatus [1]): Active | Activity (Aspergillus fumigatus [2]): Active | Activity (Aspergillus fumigatus [3]): Active | minimal effective concentration (Aspergillus flavus [4]): 0.03 µg/mL | EC5 (Aspergillus flavus [5]): 0.01 µg/mL | minimal effective concentration (Aspergillus flavus [6]): 0.25 µg/mL | Activity (Aspergillus terreus [7]): inactive | minimal effective concentration (Aspergillus fumigatus [8]): 0.03 µg/mL | Ratio (Aspergillus terreus [9]): 3 | Activity (Aspergillus flavus [10]): inactive | Activity (Aspergillus fumigatus [11]): 26% | Activity (Aspergillus flavus [12]): 16% | Activity (Aspergillus flavus [13]): Active | Activity (Aspergillus terreus [14]): inactive | Activity (Aspergillus terreus [15]): 30% | Activity (Aspergillus terreus [16]): Active | Activity (Aspergillus fumigatus [17]): inactive | Activity (Aspergillus flavus [18]): Active | Activity (Aspergillus fumigatus [19]): Active | Ratio (Aspergillus flavus [20]): 2.96 | EC5 (Aspergillus fumigatus [21]): 0.03 µg/mL | Activity (Aspergillus terreus [22]): inactive | Activity (Aspergillus fumigatus [23]): 36% | Activity (Aspergillus terreus [24]): Active | Activity (Aspergillus flavus [25]): inactive | Activity (Aspergillus flavus [26]): inactive | Activity (Aspergillus flavus [27]): inactive | Activity (Aspergillus fumigatus [28]): inactive | Ratio (Aspergillus fumigatus [29]): 2.4 | Activity (Aspergillus fumigatus [30]): Active | Activity (Aspergillus flavus [31]): Active | Activity (Aspergillus fumigatus [32]): inactive | EC5 (Aspergillus flavus [33]): 0.09 µg/mL | Activity (Aspergillus terreus [34]): Active | minimal effective concentration (Aspergillus terreus [35]): 0.25 µg/mL | Activity (Aspergillus terreus [36]): Active | EC5 (Aspergillus terreus [37]): 0.01 µg/mL | minimal effective concentration (Aspergillus terreus [38]): 0.03 µg/mL | Activity (Aspergillus terreus [39]): Active | EC5 (Aspergillus fumigatus [40]): 0.11 µg/mL | Activity (Aspergillus flavus [41]): Active | Ratio (Aspergillus fumigatus [42]): 2 | Activity (Aspergillus terreus [43]): 44% | Activity (Aspergillus fumigatus [44]): inactive | Ratio (Aspergillus flavus [45]): 2.5 | Activity (Aspergillus flavus [46]): Active | Activity (Aspergillus terreus [47]): Active | Activity (Aspergillus flavus [48]): 16% | Activity (Aspergillus terreus [49]): inactive | Ratio (Aspergillus terreus [50]): 2.97 | Activity (Aspergillus fumigatus [51]): Active | minimal effective concentration (Aspergillus fumigatus [52]): 0.12 µg/mL | EC5 (Aspergillus terreus [53]): 0.1 µg/mL | Activity (Aspergillus flavus [54]): Active
